{"source": "patent US20250152526A1", "about": "“USES OF IVALTINOSTAT FOR TREATING PANCREATIC CANCER” (CG PHARMACEUTICALS, INC, priority 2022, published 2025)", "key": {"[1]": {"tested_on": "germline BRCA-mutated metastatic pancreatic cancer", "conditions": "cited from earlier work"}, "[2]": {"tested_on": "metastatic pancreatic cancer", "conditions": "first line; cited from earlier work"}, "CYP1A2": {"molecular_target": "T1, CYP1A2 (Homo sapiens, UniProt P05177)", "T1 sequence (P05177 1-516)": "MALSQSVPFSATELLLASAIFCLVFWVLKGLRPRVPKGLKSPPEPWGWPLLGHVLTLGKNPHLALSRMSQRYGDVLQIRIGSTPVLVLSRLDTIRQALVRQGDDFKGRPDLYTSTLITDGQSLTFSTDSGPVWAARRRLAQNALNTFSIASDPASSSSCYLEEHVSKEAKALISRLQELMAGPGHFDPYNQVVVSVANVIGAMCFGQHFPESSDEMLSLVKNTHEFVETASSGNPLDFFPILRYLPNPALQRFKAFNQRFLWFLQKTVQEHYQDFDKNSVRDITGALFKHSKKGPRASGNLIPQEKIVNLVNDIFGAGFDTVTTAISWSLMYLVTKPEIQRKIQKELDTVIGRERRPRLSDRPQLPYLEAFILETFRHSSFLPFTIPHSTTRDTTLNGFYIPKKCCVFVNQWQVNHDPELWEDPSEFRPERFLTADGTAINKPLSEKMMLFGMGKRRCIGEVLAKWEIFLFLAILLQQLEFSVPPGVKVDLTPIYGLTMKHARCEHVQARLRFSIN", "assay": "in vitro CYP inhibition", "type": "in vitro ADME", "from_the_text": "(§1) Concomitant use of drugs that are moderate or strong inhibitors or inducers of these CYP enzymes should be avoided. […] Concomitant use of drugs that are substrates of CYP2D6 and have a narrow therapeutic index is not advised."}, "CYP2C19": {"molecular_target": "CYP2C19 (Homo sapiens, UniProt P33261)", "sequence (P33261 whole entry)": "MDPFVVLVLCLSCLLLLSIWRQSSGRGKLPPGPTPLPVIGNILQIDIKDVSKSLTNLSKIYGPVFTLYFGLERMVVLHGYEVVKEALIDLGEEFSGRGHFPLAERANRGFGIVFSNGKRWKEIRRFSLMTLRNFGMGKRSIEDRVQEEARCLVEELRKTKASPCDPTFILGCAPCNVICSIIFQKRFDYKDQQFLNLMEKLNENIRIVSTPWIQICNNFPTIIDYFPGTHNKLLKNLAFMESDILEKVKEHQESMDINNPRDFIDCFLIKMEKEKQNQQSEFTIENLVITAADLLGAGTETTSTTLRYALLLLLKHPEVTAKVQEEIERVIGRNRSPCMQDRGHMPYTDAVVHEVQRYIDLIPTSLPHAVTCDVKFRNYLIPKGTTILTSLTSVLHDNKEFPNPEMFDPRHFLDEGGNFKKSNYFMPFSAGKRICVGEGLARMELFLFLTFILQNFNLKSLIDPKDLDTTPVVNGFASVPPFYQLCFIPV", "assay": "in vitro CYP inhibition", "type": "in vitro ADME", "from_the_text": "as §1"}, "CYP2C9": {"molecular_target": "CYP2C9 (Homo sapiens, UniProt P11712)", "sequence (P11712 whole entry)": "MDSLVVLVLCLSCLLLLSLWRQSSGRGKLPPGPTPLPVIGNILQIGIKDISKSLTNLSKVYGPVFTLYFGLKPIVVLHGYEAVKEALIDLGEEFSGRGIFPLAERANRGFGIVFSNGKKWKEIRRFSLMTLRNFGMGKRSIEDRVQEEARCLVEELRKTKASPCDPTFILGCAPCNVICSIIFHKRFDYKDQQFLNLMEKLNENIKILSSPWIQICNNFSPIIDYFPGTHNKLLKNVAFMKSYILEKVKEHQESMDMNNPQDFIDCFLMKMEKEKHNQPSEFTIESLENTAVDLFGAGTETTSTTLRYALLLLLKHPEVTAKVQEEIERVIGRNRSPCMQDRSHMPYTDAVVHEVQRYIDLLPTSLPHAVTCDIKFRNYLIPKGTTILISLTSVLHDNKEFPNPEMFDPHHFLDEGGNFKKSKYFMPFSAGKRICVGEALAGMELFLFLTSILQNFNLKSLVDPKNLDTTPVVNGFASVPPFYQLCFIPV", "assay": "in vitro CYP inhibition", "type": "in vitro ADME", "from_the_text": "as §1"}, "CYP2D6 [3]": {"molecular_target": "T2, CYP2D6 (Homo sapiens, UniProt P10635)", "T2 sequence (P10635 whole entry)": "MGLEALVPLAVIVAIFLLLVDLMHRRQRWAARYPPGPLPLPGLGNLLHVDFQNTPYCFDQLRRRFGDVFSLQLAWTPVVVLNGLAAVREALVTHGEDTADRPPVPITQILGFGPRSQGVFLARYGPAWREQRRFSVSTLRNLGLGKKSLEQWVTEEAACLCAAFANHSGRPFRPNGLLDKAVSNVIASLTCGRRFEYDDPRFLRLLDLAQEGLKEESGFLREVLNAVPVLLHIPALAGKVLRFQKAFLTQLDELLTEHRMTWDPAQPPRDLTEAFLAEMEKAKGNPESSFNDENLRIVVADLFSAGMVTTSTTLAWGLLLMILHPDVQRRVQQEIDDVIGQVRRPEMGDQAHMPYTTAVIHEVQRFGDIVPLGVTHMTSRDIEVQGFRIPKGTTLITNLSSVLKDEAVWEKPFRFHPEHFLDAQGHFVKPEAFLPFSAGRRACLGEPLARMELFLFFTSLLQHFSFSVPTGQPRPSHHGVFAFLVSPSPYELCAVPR", "assay": "in vitro CYP inhibition", "type": "in vitro ADME", "from_the_text": "as §1"}, "CYP3A4": {"molecular_target": "CYP3A4 (Homo sapiens, UniProt P08684)", "sequence (P08684 whole entry)": "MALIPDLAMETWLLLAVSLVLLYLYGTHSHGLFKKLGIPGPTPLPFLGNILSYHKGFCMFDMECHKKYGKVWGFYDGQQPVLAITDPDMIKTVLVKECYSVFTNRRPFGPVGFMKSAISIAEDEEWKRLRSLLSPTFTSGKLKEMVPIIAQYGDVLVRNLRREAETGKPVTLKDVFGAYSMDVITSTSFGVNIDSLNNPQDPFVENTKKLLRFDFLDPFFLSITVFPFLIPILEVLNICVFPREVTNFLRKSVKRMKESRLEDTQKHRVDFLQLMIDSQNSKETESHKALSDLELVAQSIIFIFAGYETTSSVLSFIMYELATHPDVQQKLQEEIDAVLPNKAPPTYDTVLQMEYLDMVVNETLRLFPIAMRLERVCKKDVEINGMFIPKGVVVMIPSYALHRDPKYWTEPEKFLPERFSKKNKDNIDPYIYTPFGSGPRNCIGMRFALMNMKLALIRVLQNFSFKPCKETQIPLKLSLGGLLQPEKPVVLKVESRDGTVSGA", "assay": "in vitro CYP inhibition", "type": "in vitro ADME", "from_the_text": "as §1"}, "CYP2D6 [4]": {"molecular_target": "T2, CYP2D6", "assay": "nonclinical CYP substrate studies", "type": "in vitro ADME", "from_the_text": "as §1"}, "CYP3A": {"tested_on": "CYP3A", "assay": "nonclinical CYP substrate studies", "type": "in vitro ADME", "from_the_text": "as §1"}, "[5]": {"assay": "Phase 1/2 study of ivaltinostat (IV) in combination with gemcitabine and erlotinib", "procedure": "Ivaltinostat was administered on Days 1, 8 and 15 of a 28-day cycle in combination with gemcitabine (1000 mg/m^2; IV on Days 1, 8, and 15) and erlotinib (100 mg orally QD).\nIn the Phase 2 component of the study, 24 subjects received ivaltinostat at a dose level of 250 mg/m^2 in combination of gemcitabine (1000 mg/m^2; IV on Days 1, 8, and 15) and erlotinib (100 mg orally QD). In Phase 2, planned treatment duration was up to 6 cycles, but treatment could continue beyond 6 cycles if there was no progression of disease, at the discretion of the subject and treating physician."}, "pancreatic cancer": {"tested_on": "pancreatic cancer", "conditions": "1250 mg/m^2 twice daily for 2 weeks followed by 1-week rest, first line; cited from earlier work"}, "[6]": {"conditions": "Phase 2, 250 mg/m^2 plus gemcitabine and erlotinib"}, "[7]": {"conditions": "Phase 2, 16 evaluable subjects, plus gemcitabine and erlotinib"}, "[8]": {"conditions": "Phase 2, 16 subjects with at least one tumor evaluation, plus gemcitabine and erlotinib"}}, "data": [{"compound": "O=C(c1cc(Cc2n[nH]c(=O)c3ccccc23)ccc1F)N1CCN(C(=O)C2CC2)CC1", "note": "[olaparib]", "values": [{"measurement": "median PFS", "setting": "[1]; gBRCA patients after ≥16 weeks of platinum-based therapy, vs. placebo", "value": 7.4, "unit": "months"}, {"measurement": "HR (PFS vs. placebo)", "setting": "[1]; gBRCA patients, p=0.004", "value": 0.53}]}, {"compound": "FOLFIRINOX", "values": [{"measurement": "median progression-free survival (PFS)", "setting": "[2]", "value": 6.4, "unit": "months"}, {"measurement": "overall survival (OS)", "setting": "[2]", "value": 11.1, "unit": "months"}]}, {"compound": "CN(C)CCCNC(=O)/C(=C/CCCCC(=O)NO)COc1cccc2ccccc12.O=P(O)(O)O", "note": "[ivaltinostat, (E)-N1-(3-(dimethylamino)propyl)-N8-hydroxy-2-((naphthalen-1-yloxy)methyl)oct-2-enediamide phosphate]", "values": [{"measurement": "IC50", "setting": "CYP1A2", "value": "> 10", "unit": "µM"}, {"measurement": "IC50", "setting": "CYP2C19", "value": "> 90", "unit": "µM"}, {"measurement": "IC50", "setting": "CYP2C9", "value": "> 90", "unit": "µM"}, {"measurement": "IC50", "setting": "CYP2D6 [3]", "value": 5.5, "unit": "µM"}, {"measurement": "IC50", "setting": "CYP3A4", "value": "> 10", "unit": "µM"}, {"measurement": "substrate for CYP2D6", "setting": "CYP2D6 [4]", "value": "substrate"}, {"measurement": "substrate for CYP3A", "setting": "CYP3A", "value": "substrate"}, {"measurement": "anemia, grade 3 treatment-related AE frequency", "setting": "[5]; [6]", "value": 17, "unit": "%"}, {"measurement": "anemia, grade 4 treatment-related AE frequency", "setting": "[5]; [6]", "value": 0, "unit": "%"}, {"measurement": "deaths related to SAEs considered related to the investigational drugs", "setting": "[5]; [6]", "value": "no deaths"}, {"measurement": "discontinuation of study drug due to an AE", "setting": "[5]; [6]", "value": "No subjects discontinued"}, {"measurement": "neutrophil count decreased, grade 3 treatment-related AE frequency", "setting": "[5]; [6]", "value": 13, "unit": "%"}, {"measurement": "neutrophil count decreased, grade 4 treatment-related AE frequency", "setting": "[5]; [6]", "value": 17, "unit": "%"}, {"measurement": "platelet count decreased, grade 3 treatment-related AE frequency", "setting": "[5]; [6]", "value": 17, "unit": "%"}, {"measurement": "platelet count decreased, grade 4 treatment-related AE frequency", "setting": "[5]; [6]", "value": 13, "unit": "%"}, {"measurement": "tolerability", "setting": "[5]; [6]", "value": "generally well tolerated"}, {"measurement": "partial responses", "setting": "[5]; [7]", "value": 25, "unit": "%"}, {"measurement": "partial responses, number of patients", "setting": "[5]; [7]", "value": 4, "unit": "patients"}, {"measurement": "stable disease", "setting": "[5]; [7]", "value": 68.8, "unit": "%"}, {"measurement": "stable disease, number of patients", "setting": "[5]; [7]", "value": 11, "unit": "patients"}, {"measurement": "disease control rate (DCR)", "setting": "[5]; [8]", "value": 93.8, "unit": "%"}, {"measurement": "objective response rate (ORR)", "setting": "[5]; [8]", "value": 25.0, "unit": "%"}]}, {"compound": "CCCCCOC(=O)Nc1nc(=O)n([C@@H]2O[C@H](C)[C@@H](O)[C@H]2O)cc1F", "note": "[Capecitabine, capecitabine]", "values": [{"measurement": "efficacy and tolerability of dose schedule", "setting": "pancreatic cancer", "value": "effective and tolerable"}]}]}
